Columns and labels:
[1] = system: exonuclease deficient variant of the Pol6 polymerase; test: Displacement assay of single, double, triple and quadruple nucleotide substrates (Example 3); assay type: biochemical
Description: B. Assay protocol: The assay is a displacement assay using an exonuclease deficient variant of the Pol6 polymerase as described in Example 2, wherein polymerase activity is followed by fluorometrically monitoring the change in FRET between the Cy5 and BHQ labels as the polymerase incorporates the substrates in the DNA extension reaction.
Briefly, an assay solution containing the Pol6 polymerase, the 5′-Cy5-labelled displacement DNA template of SEQ ID NO: 124, and the 3′-BHQ-labelled quencher primer of SEQ ID NO: 124 in 75 mM potassium glutamate (“K-Glu”) is prepared in the absence of the substrate or Mg^2+ ion. A substrate solution is prepared containing either the multi-nucleotide compound to be assayed (i.e., “Y-Tag,” “W-Tag,” or “Q-Tag”), the non-tagged dT6P (“Hexa-PO4), or the tagged single nucleotide substrate, dA6P-dT30-C3 (”Full Tag“) of compound (3d). Also included in the substrate solution are the other three nucleotide-hexaphosphate (”dN6P″) substrates required for polymerase synthesis of a strand complementary to the DNA template (i.e., dA6P, dC6P, dG6P). This substrate solution is added to the polymerase solution. Assays are carried out for each of the test substrates at the following initial concentrations: 0.25 μM, 0.5 μM, 1.0 μM, 2.0 μM, 4.0 μM, and 8.0 μM. Additional K-Glu is added to bring the total K-Glu concentration in the mixture up to 300 mM. The polymerase reaction is then initiated by addition of MgCl2. Final concentrations in the assay reaction mixture are: 100 nM Pol6 enzyme, 50 nM Cy5 displacement DNA template, 40 μM each of other dN6P substrates, 300 mM K-Glu, 25 mM HEPES, 0.2 mM EDTA, 0.05% Triton X-100, 5 mM TCEP, 25 μg/mL BSA, 5 mM MgCl2, pH 7.5.

[2] = system: α-HL-Pol6 nanopore-polymerase conjugate; assay type: biochemical

Q: With `Cc1cn([C@H]2C[C@H](O)[C@@H](COP(=O)(O)OP(=O)(O)OP(=O)(O)OP(=O)(O)OP(=O)(O)OP(=O)(O)O)O2)c(=O)[nH]c1=O` [dT6P] as the molecule, how does the Rate ([1]; Initial Conc. Tag 0.25 μM) read?
A: 0.57 Bases/sec

Q: And the Rate ([1]; Initial Conc. Tag 0.5 μM)?
A: 2.87 Bases/sec

Q: And the Rate ([1]; Initial Conc. Tag 1.0 μM)?
A: 3.48 Bases/sec

Q: What about the Rate ([1]; Initial Conc. Tag 2.0 μM) of the same molecule?
A: 3.89 Bases/sec

Q: And the Rate ([1]; Initial Conc. Tag 4.0 μM)?
A: 4.48 Bases/sec

Q: And the Rate ([1]; Initial Conc. Tag 8.0 μM)?
A: 4.24 Bases/sec

Q: For “(dA6P)2-dT5-(BHEB)-dT14-C3: two dA6P via doubler-linker on tag SEQ ID NO: 109 (DNA ttttttttttttttttttt; two dA6P via doubler linker; BHEB; C3; (5)..(6) bis-hydroxyethylbenzene residue between nucleotide residues 5 and 6; (19)..(19) T-propanol)”, which blocking current level [2] is on record?
A: 0.88+/−0.03

Q: With “(dC6P)2-dT20-C3: two dC6P via doubler-linker on tag SEQ ID NO: 105 (DNA tttttttttttttttttttt; two dC6P via doubler linker; C3; (20)..(20) T-propanol)” as the molecule, how does the blocking current level [2] read?
A: 0.76+/−0.04

Q: For “(dG6P)2-dT6-(Tmp)6-dT8-C3: two dG6P via doubler-linker on tag SEQ ID NO: 107 (DNA TTTTTTTTTTTTTT; two dG6P via doubler linker; Tmp; C3; (6)..(7) 6 thymidine methylphosphonate residues between nucleotide residues 6 and 7; (14)..(14) T-propanol)”, which blocking current level [2] is on record?
A: 0.38+/−0.08

Q: “(dT6P)2-dT4-(N3CET)3-dT13-C3: two dT6P via doubler-linker on tag SEQ ID NO: 106 (DNA TTTTTTTTTTTTTTTTT; chemistry not fully specified)” was tested. Which blocking current level [2] did it give?
A: 0.62+/−0.05
